Consider 3 compounds from patent US10125075B2, “P-toluic acid production method” (TORAY INDUSTRIES, INC., priority 2015, dated 2018).

Converted amounts (≈) assume the structure as drawn.

A short description of one data set: physchem. As to conditions: 25 °C, pH 7, aqueous buffer.
The nature of another data set: solubility in water. As to conditions: 25 °C.
For data set [1] the following is noted: pH 7, 25° C.; 'known to be'; cited from earlier work.

In turn, `CC1C(O)C=C(C(=O)O)CC1O` (stereo not shown) [Compound (1)] yielded a solubility in the data set “physchem” of no less than 50 mg/mL. `CC1C(O)CC(O)(C(=O)O)CC1O` (stereo not shown) [Compound (2)] came in with a solubility in “solubility in water” (pH 7, aqueous buffer) of no less than 50 mg/mL. For the compound `Cc1ccc(C(=O)O)cc1` [p-toluic acid], the solubility in water in data set [1] was 0.3 mg/mL (≈ 2.2 mM). Moreover, the solubility in the data set “solubility in water” (pH 0, aqueous buffer) is no more than 0.1 mg/mL.
